Target: T1, human metabotropic glutamate 7 receptor (hmGlu7) (Homo sapiens, UniProt Q14831)
T1 construct: expressed in transfected cells
Experiment: mGlu7 assay on HEK-expressing human mGlu7: fluorescent cell based-Ca2+ mobilization assay (FLIPR), inhibition of EC80 L-AP4 response
Settings: HEK-293 cells expressing hmGlu7, EC80 L-AP4; mean of at least three independent experiments in duplicate; read-out: Ca^2+ Flux (mean IC50)
Source text: mGlu7 Assay on HEK-Expressing Human mGLU7
The cDNA encoding the human metabotropic glutamate 7 receptor (hmGlu7), (accession number NM_181874.2, NCBI Nucleotide database browser), was subcloned into an expression vector containing also the hygromycin resistance gene. In parallel, the cDNA encoding a G protein allowing redirection of the activation signal to intracellular calcium flux was subcloned into a different expression vector containing also the Puromycin resistance gene. Transfection of both these vectors into HEK293 cells with PolyFect reagent (Qiagen) according to supplier's protocol, and hygromycin and puromycin treatment allowed selection of antibiotic resistant cells which had integrated stably one or more copies of the plasmids. Positive cellular clones expressing hmGlu7 were identified in a functional assay measuring changes in calcium fluxes in response to glutamate and L-AP4 or known mGlu7 orthosteric antagonists.
HEK-293 cells expressing hmGlu7 were maintained in media containing DMEM, Fetal Bovine Serum (10%), GlutaMAX™ (2 mM), penicillin (100 units/mL), streptomycin (100 μg/mL), geneticin (100 μg/mL) and hygromycin-B (40 μg/mL) and puromycin (1 μg/mL) at 37° C. with 5% CO2 in a humidified atmosphere.
Human mGlu7 HEK-293 cells were plated out 24 hours prior to a fluorescent cell-based calcium mobilization assay using FLIPR^384 assay (Molecular Device, Sunnyvale, CA, USA) in black-walled, clear-bottomed, poly-L-ornithine-coated 384-well plates at a density of 25,000 cells/well in a glutamine/glutamate free DMEM medium containing fetal bovine serum (10%), penicillin (100 units/mL), streptomycin (100 μg/mL) and doxycyline (1 μg/ml) at 37° C. with 5% CO2 in a humidified atmosphere.
On the day of the assay, the medium was aspirated and the cells were loaded with a 3 μM solution of Fluo4-AM (LuBioScience, Lucerne, Switzerland) in 0.03% pluronic acid. After 1 hour at 37° C./5% CO2, the non incorporated dye was removed by washing cell plate with the assay buffer. All assays were performed in a pH 7.4 buffered-Solution containing 20 mM HEPES, 143 mM NaCl, 6 mM KCl, 1 mM MgSO4, 1 mM CaCl2, 0.125 mM sulfinpyrazone and 0.1% glucose.
After 10 s of basal fluorescence recording, various concentrations of the compounds of the invention were added to the cells. Changes in fluorescence levels were first monitored for 180 s in order to detect any agonist activity of the compounds. Then the cells were stimulated by an EC80 L-AP4 concentration for an additional 110 s in order to measure inhibiting activities of the compounds of the invention. EC80 L-AP4 concentration is the concentration giving 80% of the maximal glutamate response.
The concentration-response curves of L-AP4 or representative compounds of the present invention were generated using the Prism GraphPad software (Graph Pad Inc, San Diego, USA). The curves were fitted to a four-parameter logistic equation:
(Y=Bottom+(Top−Bottom)/(1+10^((Log IC50−X)*Hill Slope)
allowing determination of IC50 values.
The Table 3 below represents the mean IC50 obtained from at least three independent experiments of selected molecules performed in duplicate.

T1 sequence (Q14831 35-922 isoform Q14831-2 limits assumed): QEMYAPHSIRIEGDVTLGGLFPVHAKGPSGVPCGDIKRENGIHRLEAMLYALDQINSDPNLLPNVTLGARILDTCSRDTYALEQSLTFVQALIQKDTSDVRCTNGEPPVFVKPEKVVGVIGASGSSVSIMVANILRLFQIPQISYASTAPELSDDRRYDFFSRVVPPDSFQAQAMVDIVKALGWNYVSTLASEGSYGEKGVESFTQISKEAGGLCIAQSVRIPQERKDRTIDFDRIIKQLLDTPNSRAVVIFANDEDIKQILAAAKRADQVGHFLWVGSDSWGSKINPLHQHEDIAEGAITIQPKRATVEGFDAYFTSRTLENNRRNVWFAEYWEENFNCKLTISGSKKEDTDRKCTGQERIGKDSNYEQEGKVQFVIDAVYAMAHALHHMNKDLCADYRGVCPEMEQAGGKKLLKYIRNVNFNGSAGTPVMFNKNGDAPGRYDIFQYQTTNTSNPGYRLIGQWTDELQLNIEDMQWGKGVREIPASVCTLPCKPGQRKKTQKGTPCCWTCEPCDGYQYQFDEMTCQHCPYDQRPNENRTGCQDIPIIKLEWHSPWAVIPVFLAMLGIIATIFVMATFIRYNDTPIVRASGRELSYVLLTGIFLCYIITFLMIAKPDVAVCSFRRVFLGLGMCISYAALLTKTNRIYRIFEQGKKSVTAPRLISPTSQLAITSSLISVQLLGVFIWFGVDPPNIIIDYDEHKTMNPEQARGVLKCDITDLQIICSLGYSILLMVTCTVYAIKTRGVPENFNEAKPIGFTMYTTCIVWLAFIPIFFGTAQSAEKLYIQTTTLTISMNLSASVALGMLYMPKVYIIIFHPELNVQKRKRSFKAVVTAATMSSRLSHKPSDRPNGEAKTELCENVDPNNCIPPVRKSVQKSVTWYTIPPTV

| SMILES | IC50 |
| --- | --- |
| Cc1c(-c2c(C)c3cnn(-c4ccccn4)c(=O)n3c2C)cccc1N1CCC1 [1-13] | < 100 nM |
| COc1ccc(-c2c(C)c3cnn(-c4ccccn4)c(=O)n3c2C)cc1 [1-130] | 100 to 1000 nM |
| Cc1c(-c2cccc3c2OCCN3C)cc2cnn(-c3ccccn3)c(=O)n12 [1-62] | < 100 nM |
| Cc1c(-c2cccc(N3CCC3)c2)c(C)n2c(=O)n(-c3ncc(F)cn3)ncc12 [1-15] | < 100 nM |
| Cc1c(-c2cccc(N3CCC3)c2)c(C)n2c(=O)n(-c3ncccn3)ncc12 [1-23] | < 100 nM |
| COc1cccc(-c2cc3cnn(-c4ncccn4)c(=O)n3c2C)c1Cl [1-77] | < 100 nM |
| COc1ccc(F)c(-c2cc3cnn(-c4ccccn4)c(=O)n3c2C)c1 [1-102] | < 100 nM |
| Cc1c(-c2cccc(N3CCC3)c2)c(C)n2c(=O)n(-c3ccc(N4CCOCC4)nc3)ncc12 [1-32] | 100 to 1000 nM |
| COc1cnc(-n2ncc3c(C)c(-c4cccc(OC(F)(F)F)c4)c(C)n3c2=O)nc1 [1-56] | 100 to 1000 nM |
| Cc1c(-c2cccc3c2CCN3C(C)C)cc2cnn(-c3ccccn3)c(=O)n12 [1-66] | 100 to 1000 nM |
| Cc1c(-c2cccc(OC3CC3)c2)c(C)n2c(=O)n(-c3ncc(Cl)cn3)ncc12 [1-48] | 100 to 1000 nM |
| COc1cc(F)cc(-c2cc3cnn(-c4ccccn4)c(=O)n3c2C)c1 [1-101] | 100 to 1000 nM |
| COc1cnc(-n2ncc3c(C)c(-c4cccc(OC(F)F)c4)c(C)n3c2=O)nc1 [1-57] | 100 to 1000 nM |
| COc1cc(-c2cc3cnn(-c4ccccn4)c(=O)n3c2C)ccc1F [1-107] | < 100 nM |
| COc1ccc(-c2c(C)c3cnn(-c4ccccn4)c(=O)n3c2C)c(F)c1 [1-136] | < 100 nM |
| Cc1c(-c2cccc3c2CCN3C)c(C)n2c(=O)n(-c3ncccn3)ncc12 [1-87] | 100 to 1000 nM |
| Cc1c(-c2cccc(N3CCC3)c2)c(C)n2c(=O)n(-c3ccc(NCCN(C)C)cn3)ncc12 [1-36] | 100 to 1000 nM |
| CCn1ncc2c(C)c(-c3cccc4c3CCCN4C)c(C)n2c1=O [1-94] | 100 to 1000 nM |
| Cc1c(-c2cccc3c2CCO3)cc2cnn(-c3ccccn3)c(=O)n12 [1-69] | < 100 nM |
| Cc1c(OC2CC2)cccc1-c1c(C)c2cnn(-c3ccccn3)c(=O)n2c1C [1-8] | 100 to 1000 nM |
| Cc1c(-c2cccc(OC3CC3)c2)c(C)n2c(=O)n(-c3ncccn3)ncc12 [1-29] | < 100 nM |
| CCOC(=O)c1cnc(-n2ncc3c(C)c(-c4cccc(OC5CC5)c4)c(C)n3c2=O)nc1 [1-19] | 1000 to 10000 nM |
| Cc1c(-c2cccc(N3CCC3)c2)c(C)n2c(=O)n(-c3ccc(N(C(=O)OC(C)(C)C)C(=O)OC(C)(C)C)cn3)ncc12 [1-28] | 1000 to 10000 nM |

| SMILES | IC50 |
| --- | --- |
| COc1cc(-c2c(C)c3cnn(-c4ncccn4)c(=O)n3c2C)ccn1 [1-139] | 100 to 1000 nM |
| Cc1c(OC2CC2)cccc1-c1cc2cnn(-c3ncccn3)c(=O)n2c1 [1-18, 7-[3-(cyclopropoxy)-2-methyl-phenyl]-3-pyrimidin-2-yl-pyrrolo[1,2-d][1,2,4]triazin-4-one] | 100 to 1000 nM |
| Cc1c(-c2cccc(OC3CC3)c2)cc2cnn(-c3ncccn3)c(=O)n12 [1-88] | < 100 nM |
| COc1ccc(F)c(-c2c(C)c3cnn(-c4ccccn4)c(=O)n3c2C)c1 [1-126] | 100 to 1000 nM |
| Cc1c(-c2cccc3c2ccn3C)c(C)n2c(=O)n(-c3ncccn3)ncc12 [1-97] | 100 to 1000 nM |
| Cc1c(-c2cccc(N3C4CCC3CC4)c2)c(C)n2c(=O)n(-c3ncccn3)ncc12 [1-131] | 100 to 1000 nM |
| Cc1c(OC2CC2)cccc1-c1cc2cnn(-c3ncccn3)c(=O)n2c1C [1-85] | 100 to 1000 nM |
| COc1cccc(-c2c(C)c3cnn(-c4ncccn4)c(=O)n3c2C)n1 [1-98] | 100 to 1000 nM |
| Cc1c(-c2cccc3c2CCCN3C)c(C)n2c(=O)n(-c3ncccn3)ncc12 [1-86] | 100 to 1000 nM |
| Cc1c(-c2cccc(OC3CC3)c2)c(C)n2c(=O)n(-c3ncc(N4CCC(O)C4)cn3)ncc12 (centres unmarked) [1-80] | 100 to 1000 nM |
| Cc1c(-c2cccc(OC3CC3)c2)c(C)n2c(=O)n(-c3ncc(N4CCOCC4)cn3)ncc12 [1-47, 7-[3-(cyclopropoxy)phenyl]-6,8-dimethyl-3-(5-morpholinopyrimidin-2-yl)pyrrolo[1,2-d][1,2,4]triazin-4-one] | 100 to 1000 nM |
| Cc1c(-c2cccc(N3CCC3)c2)c(C)n2c(=O)n(-c3ncc(OC(F)F)cn3)ncc12 [1-42] | < 100 nM |
| Cc1c(-c2cccc(OC3CC3)c2)c(C)n2c(=O)n(-c3ncc(F)cn3)ncc12 [1-21] | < 100 nM |
| Cc1c(OC(F)F)cccc1-c1cc2cnn(-c3ncccn3)c(=O)n2c1C [1-75] | < 100 nM |
| Cc1c(OC2CC2)cccc1-c1c(C)c2cnn(-c3ncc(F)cn3)c(=O)n2c1C [1-49] | 100 to 1000 nM |
| Cc1c(-c2cccc(OC3CC3)c2F)c(C)n2c(=O)n(-c3ncccn3)ncc12 [1-125] | 100 to 1000 nM |
| Cc1c(-c2cc3cnn(-c4ncccn4)c(=O)n3c2C)ccnc1OC1CC1 [1-145] | < 100 nM |
| Cc1c(-c2cccc(N3CCC3)c2)c(C)n2c(=O)n(Cc3ccccn3)ncc12 [1-9] | 100 to 1000 nM |
| COc1ccc(-c2c(C)c3cnn(-c4ncccn4)c(=O)n3c2C)c(C)n1 [1-137] | 100 to 1000 nM |
| Cc1c(-c2cccc(N3CCC3)c2)c(C)n2c(=O)n(-c3ccc(F)cn3)ncc12 [1-22] | < 100 nM |
| COc1cc(-c2cc3cnn(-c4ccccn4)c(=O)n3c2C)ccn1 [1-106] | < 100 nM |
| Cc1c(-c2cccc(N3CCC3)c2)c(C)n2c(=O)n(-c3ccncc3)ncc12 [1-6] | 100 to 1000 nM |
| Cc1c(-c2cccc(N3CCC3)c2)c(C)n2c(=O)n(-c3ccc(NC(=O)OC(C)(C)C)cn3)ncc12 [1-31] | 100 to 1000 nM |

| SMILES | IC50 |
| --- | --- |
| Cc1c(OC2CC2)cccc1-c1cc2cnn(-c3ccccn3)c(=O)n2c1C [1-84] | 100 to 1000 nM |
| Cc1c(-c2cccc(F)c2Cl)c(C)n2c(=O)n(-c3ncccn3)ncc12 [1-123] | < 100 nM |
| Cc1c(-c2cccc(OC3CC3)c2Cl)cc2cnn(-c3ccccn3)c(=O)n12 [1-104] | < 100 nM |
| COc1cccc(-c2c(C)c3cnn(-c4ccccn4)c(=O)n3c2C)c1 [1-2] | < 100 nM |
| Cc1c(-c2ccnc(OC(F)F)c2)cc2cnn(-c3ccccn3)c(=O)n12 [1-146] | 100 to 1000 nM |
| Cc1c(OC(F)F)cccc1-c1cc2cnn(-c3ccccn3)c(=O)n2c1C [1-71] | < 100 nM |
| Cc1c(OC(F)F)cccc1-c1c(C)c2cnn(-c3ncccn3)c(=O)n2c1C [1-120] | 100 to 1000 nM |
| Cc1c(-c2cc(F)cc(N3CCC3)c2)c(C)n2c(=O)n(-c3ccccn3)ncc12 [1-30] | < 100 nM |
| Cc1c(OC2CC2)cccc1-c1cc2cnn(-c3ccccn3)c(=O)n2c1 [1-82] | 100 to 1000 nM |
| COc1cc(F)cc(-c2cc3cnn(-c4ncccn4)c(=O)n3c2C)c1 [1-103] | < 100 nM |
| COc1cccc(-c2cc3cnn(-c4ncccn4)c(=O)n3c2C)c1F [1-112] | 100 to 1000 nM |
| Cc1c(-c2ccnc3c2CCN3C)cc2cnn(-c3ncccn3)c(=O)n12 [1-119] | 100 to 1000 nM |
| Cc1ccc(-c2c(C)c3cnn(-c4ccccn4)c(=O)n3c2C)c(C)c1 [1-1] | < 100 nM |
| COc1cccc(-c2cc3cnn(-c4ccccn4)c(=O)n3c2C)c1C [1-72] | < 100 nM |
| COc1ccc(-c2cc3cnn(-c4ccccn4)c(=O)n3c2C)cn1 [1-142] | 100 to 1000 nM |
| Cc1c(-c2cccc(N3CCC3)c2)c(C)n2c(=O)n(-c3ncccc3F)ncc12 [1-7] | < 100 nM |
| Cc1c(OC2CC2)cccc1-c1c(C)c2cnn(-c3ccc(C(C)(C)O)cn3)c(=O)n2c1C [1-59] | < 100 nM |
| Cc1c(-c2cccc(OC(F)(F)F)c2)c(C)n2c(=O)n(-c3ncccn3)ncc12 [1-53, 6,8-dimethyl-3-pyrimidin-2-yl-7-[3-(trifluoromethoxy)phenyl]pyrrolo[1,2-d][1,2,4]triazin-4-one] | 100 to 1000 nM |
| COc1cccc(-c2c(C)c3cnn(-c4ccccn4)c(=O)n3c2C)c1C [1-4] | 100 to 1000 nM |
| Cc1c(-c2ccnc(OC(F)F)c2)cc2cnn(-c3ncccn3)c(=O)n12 [1-147] | < 100 nM |
| Cc1c(-c2cccc3c2CCN3C)cc2cnn(-c3ncccn3)c(=O)n12 [1-90] | < 100 nM |
| COc1ccc(-c2c(C)c3cnn(-c4ncccn4)c(=O)n3c2C)c(C)c1 [1-134] | < 100 nM |

From patent US20260184715A1, “NOVEL PYRROLO[1,2-d][1,2,4] TRIAZINONE DERIVATIVES AS NEGATIVE ALLOSTERIC MODULATORS OF MGLU7 RECEPTORS” (Neurosterix Pharma Sarl., priority 2022, published 2026)
